The results in this text go back to patent publication US10647671B2, “Promysalin analogues and methods of use thereof” (Temple University—Of The Commonwealth System of Higher …, priority 2016, dated 2020).

Where two headings read alike, the source gives them in different places.

The subject of one experiment is P. aeruginosa PA01. Briefly: IC50 assay (OD595, 24 h) against PA01. In kind it is cell-based. The conditions noted are these: Pseudomonas aeruginosa. The procedure: (§1) P. aeruginosa PA01, and PA14 were gifts from Prof. George O'Toole (Dartmouth Medical School). Bacterial cultures were grown from freezer stocks overnight (16-24 hr) with shaking at 37° C. in Tryptic Soy Broth (TSB) media (10 mL). Growth curves were obtained for PA01 and PA14 to determine the OD of each strain in exponential growth; OD readings at 595 nm were taken every 10 minutes for 6 hours in a plate reader at 37° C. with shaking and repeated six times. (see FIGS. 6A and 6B) Compounds were serially diluted in sterile DI water from a stock solution (1 mM in 10% DMSO/90% H2O) to yield twenty-four test concentrations. Overnight cultures were diluted 1:100 in 5 mL fresh media and grown with shaking at 37° C. to an OD of 0.32 (see growth curves). Bacteria were diluted to a concentration of 0.004 using the following equation: (x μL O/N)(OD reading)=(0.004)(volume needed) and 100 μL was inoculated into each well of a flat-bottom 96-well plate (Corning 3370) containing 100 μL of compound solution. Plates were incubated statically at 37° C. for 24 hours, upon which time the OD at 595 nm was measured using a plate reader. IC50 values were calculated by fitting the OD readings vs. concentration with a 4 parameter logistic model. Controls were prepared by serially diluting a 10% DMSO/90% H2O the same as the compound stock solution. Compounds were tested in triplicate from separate O/N cultures and results averaged.

In another experiment the test system is P. aeruginosa PA14. Description: IC50 assay (OD595, 24 h) against PA14. In kind it is cell-based, Pseudomonas aeruginosa. The conditions noted are these: for IC50: Pseudomonas aeruginosa. The procedure:
(§2) P. aeruginosa PA01, and PA14 were gifts from Prof. George O'Toole (Dartmouth Medical School). Bacterial cultures were grown from freezer stocks overnight (16-24 hr) with shaking at 37° C. in Tryptic Soy Broth (TSB) media (10 mL). Growth curves were obtained for PA01 and PA14 to determine the OD of each strain in exponential growth; OD readings at 595 nm were taken every 10 minutes for 6 hours in a plate reader at 37° C. with shaking and repeated six times. (see FIGS. 6A and 6B)
as §1, with “Compounds” for “P. aeruginosa PA01, and PA14 were gifts from Prof. George O'Toole (Dartmouth Medical School). Bacterial cultures were grown from freezer stocks overnight (16-24 hr) with shaking at 37° C. in Tryptic Soy Broth (TSB) media (10 mL). Growth curves were obtained for PA01 and PA14 to determine the OD of each strain in exponential growth; OD readings at 595 nm were taken every 10 minutes for 6 hours in a plate reader at 37° C. with shaking and repeated six times. (see FIGS. 6A and 6B) Compounds”
Compounds were serially diluted in sterile DI water from a stock solution (10% DMSO/H2O) yielding 24 test concentrations. Bacteria were diluted to a final concentration of 0.004 from regrown overnight culture according to the following equation: (xμL bacterial culture)(OD reading)=(0.004)(total volume needed) and 100 μL was inoculated into each well of a flat-bottom 96-well plate (Corning 3370) containing 100 μL of compound solution. Plates were incubated statically at 37° C. for 24 hours upon which time OD at 595 nm was measured using a plate reader (Spectra Max 190). IC50 values were calculated using OD values and concentrations with a 4-parameter logistic model. Control experiments used a 10% DMSO/H2O stock serially diluted to the same 24 concentrations. Compounds were tested in triplicate from three independent overnight cultures.

Experiment [1] has as its system P. aeruginosa strains PAO1 and PA14. Description: Inhibitory activity against P. aeruginosa, strain not separated in text. The experiment is classed as cell-based, Pseudomonas aeruginosa. The conditions noted are these: for inhibitory activity against P. aeruginosa, in words (SAR): compared with promysalin; for IC50: Pseudomonas aeruginosa, PAO1 and PA14, read-out: IC50 / inactive up to concentration. Here is the method:
as §2
as §1, with “Compounds” for “P. aeruginosa PA01, and PA14 were gifts from Prof. George O'Toole (Dartmouth Medical School). Bacterial cultures were grown from freezer stocks overnight (16-24 hr) with shaking at 37° C. in Tryptic Soy Broth (TSB) media (10 mL). Growth curves were obtained for PA01 and PA14 to determine the OD of each strain in exponential growth; OD readings at 595 nm were taken every 10 minutes for 6 hours in a plate reader at 37° C. with shaking and repeated six times. (see FIGS. 6A and 6B) Compounds”
With a library of sixteen analogs in hand, all of the compounds were evaluated for inhibitory activity against P. aeruginosa strains PAO1 and PA14. […] The inhibition data supported our initial hypothesis that the conformation of promysalin is exquisitely linked to its inhibition of PA. Of our modifications to the proline structure, fluorination (9)—being the smallest steric perturbation, was the only compound with equipotency to that of promysalin.

[2] abbreviates: average of EXPT 1-3, read-out: IC50 PA01 AVG.
Where [3] appears, read: averages of three independent experiments, read-out: IC50 PA01.
Setting [4] is: single trial 1, read-out: IC50 PA01 EXPT 1.
[5] abbreviates: single trial 2, read-out: IC50 PA01 EXPT 2.
Setting [6] is: single trial 3, read-out: IC50 PA01 EXPT 3.
Where [7] appears, read: average of EXPT 1-3, read-out: IC50 PA14 AVG.
Where [8] appears, read: averages of three independent experiments, read-out: IC50 PA14.
Where [9] appears, read: single trial 1, read-out: IC50 PA14 EXPT 1.
[10] abbreviates: single trial 2, read-out: IC50 PA14 EXPT 2.

In the case of `CCCCCC[C@H](CCCCCCC(N)=O)OC(=O)[C@@H]1CC=CN1C(=O)c1ccccc1O` [compound 18, (R)-14-amino-14-oxotetradecan-7-yl (S)-1-(2-hydroxybenzoyl)-2,3-dihydro-1H-pyrrole-2-carboxylate], the IC50 is 5.85 µM in the experiment on P. aeruginosa PA01 (setting [2]); 5.8 µM in the experiment on P. aeruginosa PA01 (setting [3]); 4.78 µM in the experiment with P. aeruginosa PA01 (setting [4]); 5.64 µM in the experiment on P. aeruginosa PA01 (setting [5]); 7.12 µM in the experiment with P. aeruginosa PA01 (setting [6]); 0.035 µM with P. aeruginosa PA14 (setting [7]). Also, the IC50 was 0.035 µM in the experiment with P. aeruginosa PA14 (setting [8]), 0.02 µM in the experiment with P. aeruginosa PA14 (setting [9]) and 0.09 µM with P. aeruginosa PA14 (setting [10]). The “inhibitory activity against P. aeruginosa, in words (SAR)” value in experiment [1] is on record as “fully retained”.
`CCCCCC[C@H](CCCCC[C@@H](O)C(N)=O)OC(=O)[C@@H]1CCCCN1C(=O)c1ccccc1O` [compound 7, (1R,7R)-1-carbamoyl-1-hydroxytridecan-7-yl (2S)-1-(2-hydroxybenzoyl)piperidine-2-carboxylate]: in experiment [1], the “inhibitory activity against P. aeruginosa, in words (SAR)” value was “inactive”.
Same read-out and setting: the value for `CCCCCC[C@H](CCCCC[C@@H](O)C(N)=O)OC(=O)[C@@H]1CC=CN1C(=O)c1cc(OC)c(OC)c(OC)c1` [compound 16, (1R,7R)-1-carbamoyl-1-hydroxytridecan-7-yl (2S)-1-(3,4,5-trimethoxybenzoyl)-2,3-dihydro-1H-pyrrole-2-carboxylate] was “not tolerated”.
On to `CCCCCC[C@H](CCCCC[C@@H](OC)C(N)=O)OC(=O)[C@@H]1CC=CN1C(=O)c1ccccc1O` [compound 19, (7R,13R)-14-amino-13-methoxy-14-oxotetradecan-7-yl (S)-1-(2-hydroxybenzoyl)-2,3-dihydro-1H-pyrrole-2-carboxylate], for which the IC50 with P. aeruginosa PA01 (setting [2]) came out at 38.3 µM; in the experiment with P. aeruginosa PA01 (setting [3]), 38 µM; in the experiment on P. aeruginosa PA01 (setting [4]), 29.2 µM; in the experiment on P. aeruginosa PA01 (setting [5]), 49.3 µM; in the experiment with P. aeruginosa PA01 (setting [6]), 47.6 µM; with P. aeruginosa PA14 (setting [7]), 11.2 µM. Moreover, the IC50 in the experiment with P. aeruginosa PA14 (setting [8]) is 11 µM; in the experiment with P. aeruginosa PA14 (setting [9]), 12.8 µM; in the experiment on P. aeruginosa PA14 (setting [10]) it was 5.72 µM; in the experiment on P. aeruginosa PA14 (single trial 3, read-out: IC50 PA14 EXPT 3) it was 15 µM. In addition, the “inhibitory activity against P. aeruginosa, in words (SAR)” value in experiment [1] is reported as “decrease in potency”.
Take `CCCCCC[C@H](CCCCC[C@@H](O)C(N)=O)OC(=O)[C@@H]1CC[C@H]2Oc3ccccc3C(=O)N21` (single isomer, unassigned) [2b]: the “inhibitory activity against P. aeruginosa, in words (SAR)” value in experiment [1] is given as “no biological activity”.
In the case of `C#CCCC1(CCNC(=O)[C@H](O)CCCCC[C@@H](CCCCCC)OC(=O)[C@@H]2CC=CN2C(=O)c2ccccc2O)N=N1` [(−)-2, (7R,13R)-14-((2-(3-(but-3-yn-1-yl)-3H-diazirin-3-yl)ethyl)amino)-13-hydroxy-14-oxotetradecan-7-yl (S)-1-(2-hydroxybenzoyl)-2,3-dihydro-1H-pyrrole-2-carboxylate], the IC50 in the experiment on P. aeruginosa PA14 (read-out: IC50 in PA14) worked out at 1.7 µM. The “less active than promysalin” value in experiment [1] is about 10 ×.
On to `CCCCCC[C@@H](O)CCCCC[C@@H](O)C(N)=O` [compound 4, (2R,8R)-2,8-dihydroxytetradecanamide], for which, in experiment [1], the IC50 was over 250 µM.
Consider `CCCCCC[C@H](CCCCC[C@@H](O)C(N)=O)OC(=O)[C@@H]1CC[C@@H]2Oc3ccccc3C(=O)N21` (single isomer, unassigned) [2a], for which the “inhibitory activity against P. aeruginosa, in words (SAR)” value in experiment [1] is listed as “no biological activity”.
Same read-out and setting: the result for `CCCCCC[C@H](CCCCC[C@@H](O)C(N)=O)OC(=O)[C@@H]1CC=CN1C(=O)c1c(O)cccc1OC` [compound 15, (7R,13R)-14-amino-13-hydroxy-14-oxotetradecan-7-yl (S)-1-(2-hydroxy-6-methoxybenzoyl)-2,3-dihydro-1H-pyrrole-2-carboxylate] reads “not tolerated”.
Still for that read-out and setting: the value for `CCCCCC[C@H](CCCCC[C@@H](O)C(N)=O)OC(=O)[C@@H]1CC=CN1C(=O)c1ccccc1[N+](=O)[O-]` [compound 17, (7R,13R)-14-amino-13-hydroxy-14-oxotetradecan-7-yl (S)-1-(2-nitrobenzoyl)-2,3-dihydro-1H-pyrrole-2-carboxylate] was “largely unforgiving”; that for `CCCCCC[C@H](CCCCC[C@@H](O)C(N)=O)OC(=O)[C@@H]1C[C@@H](O)CN1C(=O)c1ccccc1O` [compound 8, (1R,7R)-1-carbamoyl-1-hydroxytridecan-7-yl (2S,4R)-4-hydroxy-1-(2-hydroxybenzoyl)pyrrolidine-2-carboxylate] was “inactive”.
The same measure, in the same setting: the value for `C#CCCC1(CCNC(=O)[C@H](O)CCCCC[C@@H](CCCCCC)OC(=O)[C@@H]2CC=CN2C(=O)c2ccccc2)N=N1` [(−)-S12, (7R,13R)-14-((2-(3-(but-3-yn-1-yl)-3H-diazirin-3-yl)ethyl)amino)-13-hydroxy-14-oxotetradecan-7-yl (S)-1-benzoyl-2,3-dihydro-1H-pyrrole-2-carboxylate] was “inactive”; that for `CCCCCC[C@H](CCCCC[C@@H](O)C(N)=O)OC(=O)[C@@H]1CC=CN1C(=O)c1cccc(O)c1` [compound 12, (7R,13R)-14-amino-13-hydroxy-14-oxotetradecan-7-yl (S)-1-(3-hydroxybenzoyl)-2,3-dihydro-1H-pyrrole-2-carboxylate] was “largely unforgiving”.
Regarding `CCCCCC[C@H](CCCCC[C@@H](O)C(N)=O)OC(=O)[C@@H]1CC=CN1C(=O)c1ccc(O)cc1` [compound 13, (1R,7R)-1-carbamoyl-1-hydroxytridecan-7-yl (2S)-1-(4-hydroxybenzoyl)-2,3-dihydro-1H-pyrrole-2-carboxylate], the “inhibitory activity against P. aeruginosa, in words (SAR)” value in experiment [1] is listed as “largely unforgiving”.
Same read-out and setting: the value for `CCCCCC[C@H](CCCCC[C@@H](O)C(N)=O)OC(=O)[C@@H]1CC=CN1C(=O)c1ccccc1` [compound 14, (1R,7R)-1-carbamoyl-1-hydroxytridecan-7-yl (2S)-1-benzoyl-2,3-dihydro-1H-pyrrole-2-carboxylate] was “largely unforgiving”.
For `COC(=O)[C@@H]1CC=CN1C(=O)c1ccccc1O` [compound 5, Methyl (2S)-1-(2-hydroxybenzoyl)-2,3-dihydro-1H-pyrrole-2-carboxylate], the IC50 in experiment [1] was over 250 µM.
In the case of `C#CCNC(=O)[C@H](O)CCCCC[C@@H](CCCCCC)OC(=O)[C@@H]1CC=CN1C(=O)c1ccccc1O` [(−)-S4, (7R,13R)-13-hydroxy-14-oxo-14-(prop-2-yn-1-ylamino)tetradecan-7-yl (S)-1-(2-hydroxybenzoyl)-2,3-dihydro-1H-pyrrole-2-carboxylate], in the experiment on P. aeruginosa PA14, the “activity relative to the natural product” value is on record as “three-fold less active”. Moreover, the IC50 in the experiment with P. aeruginosa PA14 (preliminary screening for probe design, read-out: IC50 in PA14) worked out at 0.218 µM.
